According to patent publication US4921865A, “Aminoacylates of glycerol acetal” (Societe de Conseils de Recherches et d'Applications …, priority 1987, dated 1990):

Experiments:
[1] = target: T1, [^3 H]-PAF binding, platelet membrane (Oryctolagus cuniculus, UniProt G1TEI7); experiment: inhibition of specific [3H]-PAF binding to rabbit platelet membranes; details: 1 nM [3H]-PAF, 0°C 1 h 30
T1 construct: Platelet membrane homogenate was stored at -80° C; from tissue; host or cells: rabbit platelets (membrane homogenate from lysed washed platelets)
Experimental: Synthetic tritiated [^3 H]-PAF used was in ethanol solution with a specific activity of 59.5 ci/mmols. Unlabelled PAF and lyso-PAF were solubilized in ethanol solution and stored at -80° C. The compounds were solubilized in DMSO.
Rabbit whole blood (6 volumes) was drawn from the central ear artery into 1 volume of ACD solution (citric acide 1.4 g, sodium citrate 2 5 g, Dextrose 2 g per 100 ml of H2 O) and centrifuged at 150 g for 15 minutes. The platelet-rich plasma (PRP) was carefully removed and centrifuged for 15 minutes at 1000 g. The platelet pellet was then washed 3 times: twice in Tris-HCl buffer 10 mM, pH 7.4 containing NaCl 150 mM, MgCl2 5 mM, EDTA 2 mM and the last time in the same but sodium-free buffer.
The platelet pellet was resuspended in this latter buffer, quickly frozen in liquid nitrogen and slowly thawed at room temperature for at least 3 times as described by T. Y. Shen et al. The lysed platelets were centrifuged at 100,000 g for 30 minutes in a BECKMAN model L8.55 ultra centrifuge (rotor 50.2 Ti). Platelet membrane homogenate was stored at -80° C. and used within two weeks without noticeable changes in PAF-acether binding characteristics.
Protein contain was determined by the Lowry method using bovine serum albumine as standard.
60 to 100 μg of membrane proteins were added to a final volume of 1 ml in plastic tubes containing 1 nM [^3 H]-PAF in Tris-HCl 10 mM pH 7 buffer containing 0.025 % bovine serum albumin and incubated with or without unlabelled PAF or PAF-antagonists. The incubation was carried out for 1 h 30 at 0° C. The bound [^3 H]-PAF was separated from the free [^3 H]-PAF by immediate filtration through whatman GF/C glass fiber filters under vacuum (Brandel system). The reaction and the filters were washed 3 times with 5 ml of ice-cold buffer. The filters were then placed into polyethylene phials filled up with 10 ml of liquid scintillation fluid and the radioactivity was measured by an LKB β counter with 45% efficiency.
The non specific binding was determined in the presence of 10^-6 M of unlabelled PAF. The specific binding was calculated by substracting non specific binding from the total binding. The inhibition by compounds on the specific [^3 H]-PAF binding was determined as the percent inhibition by the equation: [formula]

[2] = system: polymorphonuclear leukocytes (PMNs); experiment: antagonism of polymorphonuclear leukocyte aggregation induced by PAF; format: cell-based, rat (Wistar); details: rat PMNs, PAF 10^-8; for IC50: Leukocyte
Experimental: Polymorphonuclear leukocytes (PMNs) were obtained as described by A. W. Ford-Hutchinson et al. (Br - J. Pharmacol. 76, 367-371, 1982). Cell suspensions ([…]) were prepared from peritoneal exudates obtained after a 5 ml IP injection of sodium caseinate 12% (w/v) to male Wistar rats, 300 g body weight.
After centrifugation, cells were washed with Hanks and resuspended in MEM/Hepes 30 mM medium (PM=7.4) at a concentration of 10^7 cells/ml. Cytochalasin B (5 μg/ml) was added 10 minutes before trigering aggregation to amplify the PMNs aggregation. The light transmittance through the cell suspension (400 μl) was measured under a 900 R/mn magnetic stirring, with a dual beam aggregometer (Chronolog Corp. Coultronics.)
The control cuvet is the cell suspension diluted to 20% of the cell count with MEM and the difference represents 100% transmittance. Change in transmittance, which occurs when PAF is added, was continuously recorded.
Drugs solubilized in MEM/Hepes were added (4 μl) to PMNs suspension 2 minutes before PAF addition.

[3] = system: antigen-induced bronchoconstriction; experiment: antigen-induced bronchoconstriction in passively sensitized guinea-pigs; format: in vivo, guinea-pig (Hartley); details: 5 mg/kg IV
[4] = system: antigen-induced leukopenia; experiment: antigen-induced leukopenia in passively sensitized guinea-pigs; format: in vivo, guinea-pig (Hartley); details: 5 mg/kg IV; for Percentage Inhibition (leukopenia): vs control
[5] = system: antigen-induced thrombocytopenia; experiment: antigen-induced thrombocytopenia in passively sensitized guinea-pigs; format: in vivo, guinea-pig (Hartley); details: 5 mg/kg IV; for Percentage Inhibition (thrombocytopenia): vs control

T1 sequence (G1TEI7 1-342): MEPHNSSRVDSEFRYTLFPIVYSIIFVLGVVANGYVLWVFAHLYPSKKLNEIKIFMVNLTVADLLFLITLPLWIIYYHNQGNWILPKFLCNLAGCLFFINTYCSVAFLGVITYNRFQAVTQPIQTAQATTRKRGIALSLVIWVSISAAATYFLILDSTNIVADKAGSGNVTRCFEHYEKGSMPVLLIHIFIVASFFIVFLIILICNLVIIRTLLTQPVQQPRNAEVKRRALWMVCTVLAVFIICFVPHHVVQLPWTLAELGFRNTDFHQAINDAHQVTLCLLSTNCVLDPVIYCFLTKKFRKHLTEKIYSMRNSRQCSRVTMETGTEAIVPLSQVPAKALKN

Row | SMILES | IC50 [1] [nM] | IC50 [2] [nM] | inhibition of PMN aggregation (in words) [2] | Percentage Bronchoconstriction [3] | effect on antigen-induced bronchoconstriction (in words) [3] | Percentage Variation (bronchoconstriction) ([3]; vs control) [%] | effect on antigen-induced leukopenia (in words) [4] | Percentage Decrease in leukocytes number ([4]; 1 mn) | Percentage Inhibition (leukopenia) ([4]; 1 mn) | Percentage Decrease in leukocytes number ([4]; 5 mn) | Percentage Inhibition (leukopenia) ([4]; 5 mn) [%] | Percentage Decrease in leukocytes number ([4]; 10 mn) | Percentage Inhibition (leukopenia) ([4]; 10 mn) [%] | effect on antigen-induced thrombocytopenia (in words) [5] | Percentage Inhibition (thrombocytopenia) ([5]; 1 mn) [%] | Percentage Inhibition (thrombocytopenia) ([5]; 5 mn) [%] | Percentage Inhibition (thrombocytopenia) ([5]; 10 mn) [%]
1 | CCCCCCCCCCCCCCCCCC1(C)OCC(COC(=O)CCCCC[n+]2cccc3ccccc32)O1 (centres unmarked) [Example 10, 2-heptadecyl 2-methyl 4-[6'-(N-quinolinium)hexanoyloxymethyl) 1,3-dioxolanbromide] | 35 | 1000 | dose-dependently inhibit |  |  |  |  |  |  |  |  |  |  |  |  |  | 
2 | CCCCCCCCCCCCCCCCCC1(C)OCC(COC(=O)CCCCC[n+]2ccccc2)O1 (centres unmarked) [Example 9, 2-heptadecyl 2-methyl 4-[6'-(N-pyridinium)hexanoyloxymethyl] 1,3 dioxolan bromide] | 35 | 500 | dose-dependently inhibit | 51.3 +/- 14.2% | without significantly reducing | -28.7 | antagonizes | -15.6 +/- 6.6% | +32.0% | -8.7 +/- 10.7% | -78.0 | -12.3 +/- 14.1% | -77.2 | antagonizes | -104.4 | -91.2 | -39.8
